Assay results taken from article PMC6269038, “A Novel Class of Selective Acetylcholinesterase Inhibitors: Synthesis and Evaluation of (E)-2-(Benzo[d]thiazol-2-yl)-3-heteroarylacrylonitriles” (Molecules, 2012).
Several values for one entry are separate records, joined by “and”; a condition that tells them apart may be missing. Identical values can stand only once.

How the values were obtained:
[1] = molecular target: T1, butyrylcholinesterase (BuChE) from equine serum (Equus caballus, UniProt P81908); assay: BuChE inhibition, Ellman method, 96-well plates; assay type: biochemical; settings: average from three independent experiments, ^c = IC50 greater than 0.5 mg/mL
T1 construct: an AChE/BuChE solution (50 μL, 0.25 unit/mL) from Electroporus electricus and equine serum, respectively; from tissue; host or cells: equine serum

[2] = molecular target: AChE (Electrophorus electricus) (Electrophorus electricus, UniProt O42275); assay: biochemical; settings: for IC50: AChE from Electrophorus electricus, average from three independent experiments, ^c = IC50 greater than 0.5 mg/mL
AChE = AChE (Electrophorus electricus, UniProt O42275); assay: Kinetic characterization of AChE inhibition (Lineweaver-Burk, Ellman's method); assay type: biochemical; settings: substrate acetylthiocholine; for type of AChE inhibition: Lineweaver-Burk plots, AChE 0.02U; for Vmax: in presence of inhibitor, nonlinear regression
Procedure: The kinetics of this new class of AChE inhibitors were studied in detail using compounds 7f and 7g as examples. The nature of AChE inhibition, caused by these two compounds, was investigated by the graphical analysis of steady-state inhibition data (Figure 2A,B). […] The values of Km and Vmax were calculated by nonlinear regression according to studies by Abell et al., where Vmax was maintained at the same value while Km value was increased.
Figure 2 Lineweaver-Burk plot of AChE (0.02U) with substrate acetylthiocholine, in the absence and presence of inhibitors 7g (A), 7f (B).
Kinetic characterization of AChE was performed by means of Ellman’s method. […]. Enzyme kinetic characterization studies were performed under same incubation conditions as described above using acetylthiocholine as substrate and DTNB was used as chromophoric reagent. A parallel control with no inhibitor in the mixture was used for comparison. Each concentration was analyzed in triplicate; and Lineweaver-Burk (1/V vs. 1/[S]) plot was constructed using Sigma Plot 10.0 version software.

T1 sequence (P81908 whole entry): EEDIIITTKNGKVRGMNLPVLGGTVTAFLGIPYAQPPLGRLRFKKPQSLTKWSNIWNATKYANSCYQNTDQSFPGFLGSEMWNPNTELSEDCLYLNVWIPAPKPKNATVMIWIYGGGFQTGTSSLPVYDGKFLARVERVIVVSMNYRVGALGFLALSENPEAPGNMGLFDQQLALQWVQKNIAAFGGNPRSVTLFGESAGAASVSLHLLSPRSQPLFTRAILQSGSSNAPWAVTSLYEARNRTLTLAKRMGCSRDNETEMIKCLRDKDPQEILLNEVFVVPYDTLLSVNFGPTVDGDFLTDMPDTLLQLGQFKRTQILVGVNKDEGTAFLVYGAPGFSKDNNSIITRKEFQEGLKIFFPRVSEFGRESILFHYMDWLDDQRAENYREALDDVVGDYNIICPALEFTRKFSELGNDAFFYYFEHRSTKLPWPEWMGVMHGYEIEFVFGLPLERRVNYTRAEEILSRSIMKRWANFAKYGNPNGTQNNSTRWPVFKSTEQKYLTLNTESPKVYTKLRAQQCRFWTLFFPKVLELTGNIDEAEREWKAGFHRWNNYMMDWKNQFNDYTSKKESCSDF
AChE (Electrophorus electricus), sequence (O42275 24-633): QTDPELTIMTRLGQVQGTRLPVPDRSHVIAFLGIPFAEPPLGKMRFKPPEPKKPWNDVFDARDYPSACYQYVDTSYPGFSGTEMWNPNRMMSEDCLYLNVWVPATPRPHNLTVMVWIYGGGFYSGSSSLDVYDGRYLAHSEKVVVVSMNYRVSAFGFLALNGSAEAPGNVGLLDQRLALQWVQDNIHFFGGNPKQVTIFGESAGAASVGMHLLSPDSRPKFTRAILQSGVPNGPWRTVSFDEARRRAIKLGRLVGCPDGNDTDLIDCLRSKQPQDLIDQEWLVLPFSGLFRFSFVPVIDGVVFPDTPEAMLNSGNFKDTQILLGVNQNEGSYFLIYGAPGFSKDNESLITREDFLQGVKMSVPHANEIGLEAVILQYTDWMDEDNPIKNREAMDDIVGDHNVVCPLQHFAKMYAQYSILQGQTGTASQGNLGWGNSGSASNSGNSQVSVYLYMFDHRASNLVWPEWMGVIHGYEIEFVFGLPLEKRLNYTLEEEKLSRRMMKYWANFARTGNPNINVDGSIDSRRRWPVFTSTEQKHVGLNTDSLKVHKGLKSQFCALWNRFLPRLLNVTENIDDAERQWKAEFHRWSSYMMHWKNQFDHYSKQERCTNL
AChE, sequence (O42275 24-633): as above

With `Cc1cc(/C=C(\C#N)c2nc3ccccc3s2)no1` [7a, (E)-2-(Benzo[d]thiazol-2-yl)-3-(5-methylisoxazol-3-yl)acrylonitrile] the IC50 [1] was over 1870 µM and the IC50 [2] was 1274 ± 0.7 µM.

In the case of `N#C/C(=C\c1cc(-c2ccccc2)on1)c1nc2ccccc2s1` [7b, (E)-2-(Benzo[d]thiazol-2-yl)-3-(5-phenylisoxazol-3-yl)acrylonitrile], the IC50 [1] is reported as 1396.6 ± 0.8 µM and the IC50 [2] is reported as 1179 ± 0.5 µM.

`N#C/C(=C\c1cc(-c2ccc(F)cc2)on1)c1nc2ccccc2s1` [7c, (E)-2-(Benzo[d]thiazol-2-yl)-3-[5-(4-fluorophenyl)isoxazol-3-yl]acrylonitrile] showed an IC50 [1] of over 1440 µM and an IC50 [2] of 699 ± 0.3 µM.

Compound `N#C/C(=C\c1ccc(N2CCOCC2)cc1)c1nc2ccccc2s1` [7d, (E)-2-(Benzo[d]thiazol-2-yl)-3-(4-morpholin-4-ylphenyl)acrylonitrile] has an IC50 [1] of over 1440 µM and an IC50 [2] of 504 ± 1 µM.

`N#C/C(=C\c1ncc[nH]1)c1nc2ccccc2s1` [7e, (E)-2-(Benzo[d]thiazol-2-yl)-3-(1H-imidazol-2-yl)acrylonitrile] showed an IC50 [1] of over 1980 µM and an IC50 [2] of 303 ± 0.8 µM.

With `N#C/C(=C\c1cccnc1)c1nc2ccccc2s1` [7f, (E)-2-(Benzo[d]thiazol-2-yl)-3-(pyridin-3-yl)acrylonitrile] the IC50 [1] was over 2290 µM, the “type of AChE inhibition” value (AChE) was “competitive inhibitors” and the Vmax (AChE) was 0.07078. The IC50 [2] was 155 µM and 103 µM.

In the case of `N#C/C(=C\c1ccc(-c2ccc(Cl)cc2)o1)c1nc2ccccc2s1` [7g, (E)-2-(Benzo[d]thiazol-2-yl)-3-[5-(4-chlorophenyl)furan-2-yl]acrylonitrile], the IC50 [1] is reported as 474 µM, the “type of AChE inhibition” value (AChE) is reported as “competitive inhibitors” and the Vmax (AChE) is reported as 0.2236. For the same compound, the IC50 [2] was 64 ± 0.6 µM and the “Selectivity for AChE (selectivity index)” value ([2]; defined as IC50 (BuChE)/IC50 (AChE)) was 7.40.

`Cc1nn(-c2ccccc2)c(Cl)c1/C=C(\C#N)c1nc2ccccc2s1` [7h, (E)-2-(Benzo[d]thiazol-2-yl)-3-(5-chloro-3-methyl-1-phenyl-1H-pyrazol-4-yl)acrylonitrile] was tested, and the IC50 [1] was over 1330 µM and the IC50 [2] was over 1330 µM.

Work on `N#C/C(=C\c1ccco1)c1nc2ccccc2s1` [7i, (E)-2-(Benzo[d]thiazol-2-yl)-3-(2-furyl)acrylonitrile] yielded an IC50 [1] of 1883 ± 0.8 µM and an IC50 [2] of over 1980 µM.

In the case of `N#C/C(=C\c1ccc(-c2ccccc2)cc1)c1nc2ccccc2s1` [7j, (E)-2-(Benzo[d]thiazol-2-yl)-3-(1,1'-biphenyl-4-yl)acrylonitrile], the IC50 [1] is reported as 1273 ± 0.7 µM and the IC50 [2] is reported as over 1480 µM.

With `N#C/C(=C\c1ccccn1)c1nc2ccccc2s1` [7k, (E)-2-(Benzo[d]thiazol-2-yl)-3-(pyridin-2-yl)acrylonitrile] the IC50 [1] was over 1900 µM and the IC50 [2] was over 1900 µM.
